From the supplement of paper PMC10307832 come the findings set out here.

What all share (assay): relative viability (nuclei count vs DMSO), 5 days (fraction); higher = more cells survive
Compound in the assay “AZD5582 + Dasatinib”: C[C@@H](C(=O)N[C@@H](C1CCCCC1)C(=O)N2CCC[C@H]2C(=O)N[C@@H]3[C@@H](CC4=CC=CC=C34)OCC#CC#CCO[C@@H]5CC6=CC=CC=C6[C@@H]5NC(=O)[C@@H]7CCCN7C(=O)[C@H](C8CCCCC8)NC(=O)[C@H](C)NC)NC [AZD5582] + Cc1nc(Nc2ncc(C(=O)Nc3c(C)cccc3Cl)s2)cc(N2CCN(CCO)CC2)n1 [Dasatinib] (partner 0.075 µM)
In short, it runs like this:
(§1)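 Lung cancer cell lines were seeded in 1536-well plates and dosed by pin tool the next day, with either a single drug or a fixed anchor-drug dose combined with five library-drug doses (not always all listed) spaced in √10 steps. Five days later, one step fixed the cells and stained their nuclei (final 0.05% Triton X-100, 1% formaldehyde, 1 ug/ml Hoechst), and nuclei were counted on 4× images. Relative viability is the nuclei count in treated wells divided by the count in vehicle wells, and each value is the median of duplicate plates.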

Compound in the assay “AZD5582 + Linsitinib”: C[C@@H](C(=O)N[C@@H](C1CCCCC1)C(=O)N2CCC[C@H]2C(=O)N[C@@H]3[C@@H](CC4=CC=CC=C34)OCC#CC#CCO[C@@H]5CC6=CC=CC=C6[C@@H]5NC(=O)[C@@H]7CCCN7C(=O)[C@H](C8CCCCC8)NC(=O)[C@H](C)NC)NC [AZD5582] + C[C@]1(O)C[C@@H](c2nc(-c3ccc4ccc(-c5ccccc5)nc4c3)c3c(N)nccn32)C1 [Linsitinib] (partner 1 µM)
In outline: as §1

Compound in the assay “AZD5582 + Navitoclax”: C[C@@H](C(=O)N[C@@H](C1CCCCC1)C(=O)N2CCC[C@H]2C(=O)N[C@@H]3[C@@H](CC4=CC=CC=C34)OCC#CC#CCO[C@@H]5CC6=CC=CC=C6[C@@H]5NC(=O)[C@@H]7CCCN7C(=O)[C@H](C8CCCCC8)NC(=O)[C@H](C)NC)NC [AZD5582] + CC1(C)CCC(c2ccc(Cl)cc2)=C(CN2CCN(c3ccc(C(=O)NS(=O)(=O)c4ccc(N[C@H](CCN5CCOCC5)CSc5ccccc5)c(S(=O)(=O)C(F)(F)F)c4)cc3)CC2)C1 [Navitoclax] (partner 0.5 µM)
In outline:
as §1

Compound in the assay “AZD5582 + Palbociclib”: C[C@@H](C(=O)N[C@@H](C1CCCCC1)C(=O)N2CCC[C@H]2C(=O)N[C@@H]3[C@@H](CC4=CC=CC=C34)OCC#CC#CCO[C@@H]5CC6=CC=CC=C6[C@@H]5NC(=O)[C@@H]7CCCN7C(=O)[C@H](C8CCCCC8)NC(=O)[C@H](C)NC)NC [AZD5582] + CC(=O)c1c(C)c2cnc(Nc3ccc(N4CCNCC4)cn3)nc2n(C2CCCC2)c1=O [Palbociclib] (partner 0.5 µM)
In short, it runs like this: as §1

Compound in the assay “AZD5582 + Trametinib”: C[C@@H](C(=O)N[C@@H](C1CCCCC1)C(=O)N2CCC[C@H]2C(=O)N[C@@H]3[C@@H](CC4=CC=CC=C34)OCC#CC#CCO[C@@H]5CC6=CC=CC=C6[C@@H]5NC(=O)[C@@H]7CCCN7C(=O)[C@H](C8CCCCC8)NC(=O)[C@H](C)NC)NC [AZD5582] + CC(=O)Nc1cccc(-n2c(=O)n(C3CC3)c(=O)c3c(Nc4ccc(I)cc4F)n(C)c(=O)c(C)c32)c1 [Trametinib] (partner 0.02 µM)
In short, it runs like this: as §1

Regarding LXF-289, the relative viability came to 0.228 in the assay with AZD5582 + Dasatinib (first compound 0.001581 µM); 0.236 in the assay with AZD5582 + Dasatinib (first compound 0.005 µM); 0.154 in the assay with AZD5582 + Dasatinib (first compound 0.01581 µM); 0.13 in the assay with AZD5582 + Dasatinib (first compound 0.05 µM); 0.924 in the assay with AZD5582 + Linsitinib (first compound 0.001581 µM); 0.936 with AZD5582 + Linsitinib (first compound 0.005 µM). The relative viability with AZD5582 + Linsitinib (first compound 0.01581 µM) was found to be 0.959; in the assay with AZD5582 + Linsitinib (first compound 0.05 µM), 0.998; in the assay with AZD5582 + Navitoclax (first compound 0.001581 µM), 0.948; with AZD5582 + Navitoclax (first compound 0.005 µM) it was 0.935; with AZD5582 + Navitoclax (first compound 0.01581 µM), 0.919; with AZD5582 + Navitoclax (first compound 0.05 µM), 0.934. For the same cell line, the relative viability in the assay with AZD5582 + Palbociclib (first compound 0.001581 µM) stood at 0.575; with AZD5582 + Palbociclib (first compound 0.005 µM), 0.585; with AZD5582 + Palbociclib (first compound 0.01581 µM), 0.577; in the assay with AZD5582 + Palbociclib (first compound 0.05 µM) it was 0.598; in the assay with AZD5582 + Trametinib (first compound 0.001581 µM) it was 0.641; with AZD5582 + Trametinib (first compound 0.005 µM), 0.647. For the same cell line, the relative viability with AZD5582 + Trametinib (first compound 0.01581 µM) came to 0.654; with AZD5582 + Trametinib (first compound 0.05 µM), 0.726.

On to EMC-BAC-2, for which the relative viability is 0.332 in the assay with AZD5582 + Dasatinib (first compound 0.001581 µM); 0.327 with AZD5582 + Dasatinib (first compound 0.005 µM); 0.31 with AZD5582 + Dasatinib (first compound 0.01581 µM); 0.241 in the assay with AZD5582 + Dasatinib (first compound 0.05 µM); 0.768 with AZD5582 + Linsitinib (first compound 0.001581 µM); 0.871 in the assay with AZD5582 + Linsitinib (first compound 0.005 µM). The relative viability with AZD5582 + Linsitinib (first compound 0.01581 µM) came to 0.831; with AZD5582 + Linsitinib (first compound 0.05 µM), 0.564; in the assay with AZD5582 + Navitoclax (first compound 0.001581 µM), 1.07; with AZD5582 + Navitoclax (first compound 0.005 µM), 0.984; with AZD5582 + Navitoclax (first compound 0.01581 µM), 1.15; in the assay with AZD5582 + Navitoclax (first compound 0.05 µM), 0.62. The relative viability with AZD5582 + Palbociclib (first compound 0.001581 µM) is 0.472; with AZD5582 + Palbociclib (first compound 0.005 µM), 0.527; with AZD5582 + Palbociclib (first compound 0.01581 µM), 0.503; with AZD5582 + Palbociclib (first compound 0.05 µM) it was 0.513; with AZD5582 + Trametinib (first compound 0.001581 µM) it was 0.757; with AZD5582 + Trametinib (first compound 0.005 µM), 0.841. Further, the relative viability came out at 0.737 with AZD5582 + Trametinib (first compound 0.01581 µM) and 0.797 in the assay with AZD5582 + Trametinib (first compound 0.05 µM).

Regarding 201T, the relative viability with AZD5582 + Dasatinib (first compound 0.001581 µM) was 0.557; in the assay with AZD5582 + Dasatinib (first compound 0.005 µM), 0.577; in the assay with AZD5582 + Dasatinib (first compound 0.01581 µM) it was 0.541; with AZD5582 + Dasatinib (first compound 0.05 µM), 0.589; in the assay with AZD5582 + Linsitinib (first compound 0.001581 µM), 1.03; in the assay with AZD5582 + Linsitinib (first compound 0.005 µM), 1.18. Further, the relative viability is 0.995 with AZD5582 + Linsitinib (first compound 0.01581 µM); 1.27 with AZD5582 + Linsitinib (first compound 0.05 µM); 1.21 with AZD5582 + Navitoclax (first compound 0.001581 µM); 1.23 with AZD5582 + Navitoclax (first compound 0.005 µM); 1.12 with AZD5582 + Navitoclax (first compound 0.01581 µM); 1.31 in the assay with AZD5582 + Navitoclax (first compound 0.05 µM). The relative viability with AZD5582 + Palbociclib (first compound 0.001581 µM) stood at 0.375; with AZD5582 + Palbociclib (first compound 0.005 µM) it was 0.357; with AZD5582 + Palbociclib (first compound 0.01581 µM), 0.316; with AZD5582 + Palbociclib (first compound 0.05 µM) it was 0.43; with AZD5582 + Trametinib (first compound 0.001581 µM) it was 0.786; in the assay with AZD5582 + Trametinib (first compound 0.005 µM), 0.842. The relative viability with AZD5582 + Trametinib (first compound 0.01581 µM) is 0.719; with AZD5582 + Trametinib (first compound 0.05 µM), 0.847.

On to RERF-LC-KJ, for which the relative viability with AZD5582 + Dasatinib (first compound 0.01581 µM) was found to be 0.723; with AZD5582 + Dasatinib (first compound 0.05 µM), 0.696; with AZD5582 + Linsitinib (first compound 0.001581 µM), 0.525; with AZD5582 + Linsitinib (first compound 0.005 µM), 0.481; with AZD5582 + Linsitinib (first compound 0.01581 µM), 0.879; with AZD5582 + Linsitinib (first compound 0.05 µM), 0.464. Besides, the relative viability is 0.375 with AZD5582 + Navitoclax (first compound 0.001581 µM); 0.825 with AZD5582 + Navitoclax (first compound 0.01581 µM); 0.295 in the assay with AZD5582 + Navitoclax (first compound 0.05 µM); 0.354 with AZD5582 + Palbociclib (first compound 0.001581 µM); 0.494 with AZD5582 + Palbociclib (first compound 0.005 µM); 1.03 with AZD5582 + Palbociclib (first compound 0.01581 µM). Also, the relative viability in the assay with AZD5582 + Palbociclib (first compound 0.05 µM) was found to be 0.27; with AZD5582 + Trametinib (first compound 0.001581 µM) it was 0.764; with AZD5582 + Trametinib (first compound 0.005 µM) it was 0.818; with AZD5582 + Trametinib (first compound 0.01581 µM) it was 0.898; in the assay with AZD5582 + Trametinib (first compound 0.05 µM), 0.781.
